Target: Recombinant human DPP-IV (Homo sapiens, UniProt P27487)
Test: DPP-IV assay in vitro (H-Ala-Pro-AFC fluorescence)
Type: biochemical
Details: recombinant human DPP-IV 7.8 ng/ml, 30 min pre-incubation, H-Ala-Pro-AFC 50 μM
Protocol: DPP-IV Assay Solutions of test compounds in varying concentrations (10^−5 mol/L, 10^−6 mol/L, 10^−7 mol/L, 10^−8 mol/L, 10^−9 mol/L, 10^−10 mol/L, 10^−11 mol/L, and 10^−12 mol/L) were prepared in dimethyl sulfoxide (DMSO) and then diluted into assay buffer comprising: 10 mM Tris-HCl pH 8.0, 0.2 M NaCl, and 0.1% BSA. Recombinant human DPP-IV (7.8 ng/ml final concentration) was added to the dilutions and pre-incubated for 30 mins at room temperature before the reaction was initiated with H-Ala-Pro-AFC (50 μM final concentration). The total volume of the reaction mixture was 100 μl.
The fluorescence of the mixture was measured after 30 minutes (excitation at 405 nm; emission at 535 nm). Inhibition constants (IC50) were calculated by GraphPad Prism.

Sequence of Recombinant human DPP-IV (P27487 whole entry): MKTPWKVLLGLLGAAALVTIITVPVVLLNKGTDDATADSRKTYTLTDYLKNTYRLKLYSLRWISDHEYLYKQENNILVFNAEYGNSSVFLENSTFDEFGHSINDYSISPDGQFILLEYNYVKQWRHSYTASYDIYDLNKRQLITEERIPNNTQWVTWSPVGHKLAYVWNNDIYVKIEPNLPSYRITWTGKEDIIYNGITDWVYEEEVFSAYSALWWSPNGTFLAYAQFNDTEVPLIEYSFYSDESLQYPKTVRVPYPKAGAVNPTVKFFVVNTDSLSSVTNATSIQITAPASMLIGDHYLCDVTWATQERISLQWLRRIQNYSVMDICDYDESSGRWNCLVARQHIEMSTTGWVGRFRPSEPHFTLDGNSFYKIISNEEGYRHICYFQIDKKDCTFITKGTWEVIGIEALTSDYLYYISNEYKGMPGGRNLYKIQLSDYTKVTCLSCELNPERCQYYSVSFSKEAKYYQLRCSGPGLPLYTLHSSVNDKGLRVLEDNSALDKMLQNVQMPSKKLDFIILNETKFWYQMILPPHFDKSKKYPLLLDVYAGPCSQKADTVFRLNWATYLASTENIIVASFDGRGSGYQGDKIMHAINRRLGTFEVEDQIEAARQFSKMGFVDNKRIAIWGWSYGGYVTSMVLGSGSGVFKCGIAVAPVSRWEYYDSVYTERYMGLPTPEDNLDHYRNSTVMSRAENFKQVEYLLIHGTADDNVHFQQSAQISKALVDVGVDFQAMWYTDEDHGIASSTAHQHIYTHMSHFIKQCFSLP

IC50 | Compound
640 nM | Cc1nnc(N2CCC[C@@H](N)C2)n(Cc2cc(F)ccc2Cl)c1=O [Example 4, (R)-3-(3-aminopiperidin-1-yl)-4-(2-chloro-5-fluorobenzyl)-6-methyl-1,2,4-triazin-5(4H)-one]
22 nM | Cc1nnc(N2CCC[C@@H](N)C2)n(Cc2ccccc2C#N)c1=O [Example 1, (R)-2-((3-(3-aminopiperidin-1-yl)-6-methyl-5-oxo-1,2,4-triazin-4(5H)-yl)methyl)benzonitrile]
242 nM | Cc1nnc(N2CCC[C@@H](N)C2)n(Cc2cc(F)ccc2Br)c1=O [Example 2, (R)-3-(3-aminopiperidin-1-yl)-4-(2-bromo-5-fluorobenzyl)-6-methyl-1,2,4-triazin-5(4H)-one]

— patent publication US9340523B2, “Certain dipeptidyl peptidase inhibitors” (FOCHON PHARMA, INC., priority 2009, dated 2016)
